Experiments:
Type in all cases: cell-based, mouse
NPY-17 (N-38) cells = assay: Calcium imaging (Fura2): intracellular calcium response to depolarization by KCl; details: KCl 60 mM, NPY-17 cells
Description: FIG. 15 illustrates the neurosecretory response of NPY-17 (N 38) cells. The effect of the addition of KCl (60 mM) on intracellular calcium levels ([Ca2+]i) for the cells pictured is shown. Images of cells shown in the two panels on the right were obtained as per Example 5. Shown is a representative experiment from 6 experiments, n=116 cells in total (FIG. 15, left panel);
Since many of the peptides and enzyme present in the individual cell lines are secretory products, one representative cell line, N-38 (Also known as NPY-17), was studied for its response to depolarization by addition of 60 mM KCl. […] NPY-17 neurons were plated in 60 mm plates. Fura-2/AM loaded GT1-7 neurons were continuously monitored by 340/380 ratiometric digital imaging pre (top right panel) and post (lower right panel) stimulation. […]
Ca2+ imaging experiments were performed with Fura2 (Molecular Probes) using an Olympus IX70 inverted epifluorescence microscope, an Ultrapix camera with an EEV CCD37-10-1-019 chip, a monochromator, and a PC computer with Merlin imaging software (Life Science Resources) using standard Fura2 optics and imaging techniques. […] Intracellular free Ca2+ ([Ca2+]i) concentrations calculated using the Grynkiewicz equation, [Ca2+]i=Kd×□×(R−Rmin)/(Rmax−R) (52).

N38 hypothalmic cells = assay: Microarray (Affymetrix oligonucleotide arrays) of TCAP-1 treated cells, genes regulated at 16 hours
Description: RNAs isolated from treated and untreated cells were analyzed on oligonucleotide arrays representing 12,884 mouse genes (Affymetrix, http://www.affymetrix.com). Standard filtering (p<0.005) and hierarchical clustering algorithm (average linage method: GeneSpring software—Silicon Genetics) identified significant changes in the expression of 4, 841/12,885 genes with 166 genes showing 1.5 fold down-regulation and 35 genes up-regulation in the TCAP-1-treated cells compared to the untreated cells. […] A G-protein coupled receptor-related signal transduction pathway is indicated by the regulation of genes, CREM, AKAP8, AKAP95 and PDE6A. […] The upregulation in inducible nitric oxide (INOS), a intracellular voltage-gated chloride channel (CLCN3) and the serotonin transporter (SLC6A4) may reflect the down stream actions of cAMP-mediated signal cascade and indicates the potential for TCAP to be involved in neuronal signaling systems. A role in interneuron communication by TCAP is also indicated by the modulation of genes associated with the regulation of vesicle trafficking. Thus, the TCAP responsive cell lines can be used to screen for modulators of neuronal function that affect growth, differentiation and communication.
The change in expression levels is indicated relative to the untreated control cell for the same time period of 16 hours. Values>1.5 fold or <0.70 fold were considered significant.

NPY-17 cells = assay: Leptin responsiveness: proteomic (mass spectrometry) analysis of nuclear extracts; details: 10^-7 M leptin, 20 hours, NPY-17 nuclear extracts, preliminary, +/- protein status
Description: The NPY-17 cells also express leptin receptors and have been studied for leptin responsiveness using both gene array analysis and proteomic analysis. NPY-17 cells were treated with 10^-7 M leptin (recombinant mouse, Bachem Scientific) for 20 hours. Cells were washed with PBS and harvested through centrifugation. Nuclear extracts were prepared and exposed to mass spectrometry analysis. […] The analysis is not considered quantitative, but initially represents a +/− protein status (i.e. the protein is either present or absent in the control or leptin-treated sample).

[1] = 1 nM TCAP-1, N38 cells, 16 hours post-treatment
[2] = 1 nM TCAP-1, N38 cells, treated vs untreated

Molecule: [Cl-].[K+] [KCl]
- calcium mobilization (NPY-17 (N-38) cells): significant increase
- [Ca2+]i peak value (NPY-17 (N-38) cells; representative graph): ~450 nM

Molecule: TCAP-1: teneurin C-terminal-associated peptide 1, SEQ ID NO 5 plus amidation signal GRR at C-terminus (QQLLGTGRVQGYDGYFVLSVEQYLELSDSANNIHFMRQSEI; C-terminal GRR amidation signal; Mouse TCAP1)
- Fold change PTK7 (Receptor protein tyrosine kinase) (N38 hypothalmic cells; 1 nM TCAP-1, 16 hours, relative to untreated control, cluster Growth/Differentiation, probe 92325): 1.53 fold
- Fold change GDAP10 (Ganglioside induced diff. protein 10) (N38 hypothalmic cells; 1 nM TCAP-1, 16 hours, relative to untreated control, cluster Growth/Differentiation, probe 94192): 1.62 fold
- Fold change MMP10 (Matrix metalloproteinase 10) (N38 hypothalmic cells; 1 nM TCAP-1, 16 hours, relative to untreated control, cluster Growth/Differentiation, probe 94724): 0.59 fold
- Fold change DLP1/2 (DAB2 interacting protein) (N38 hypothalmic cells; 1 nM TCAP-1, 16 hours, relative to untreated control, cluster Growth/Differentiation, probe 97353): 0.68 fold
- Fold change P204 (Interferon activatable protein) (N38 hypothalmic cells; 1 nM TCAP-1, 16 hours, relative to untreated control, cluster Growth/Differentiation, probe 98466): 1.85 fold
- Fold change GAS5 (Growth arrest specific transcript) (N38 hypothalmic cells; 1 nM TCAP-1, 16 hours, relative to untreated control, cluster Growth/Differentiation, probe 98530): 0.46 fold
- Fold change INI1B (Integrase interacting protein 1B) (N38 hypothalmic cells; 1 nM TCAP-1, 16 hours, relative to untreated control, cluster Growth/Differentiation, probe 99924): 0.48 fold
- Fold change MMP1 (Matrix metalloproteinase 1) (N38 hypothalmic cells; 1 nM TCAP-1, 16 hours, relative to untreated control, cluster Growth/Differentiation, probe 100484): 0.55 fold
- Fold change MOP3 (Circadian rhythm regulator) (N38 hypothalmic cells; 1 nM TCAP-1, 16 hours, relative to untreated control, cluster Growth/Differentiation, probe 102382): 1.57 fold
- Fold change CRD-BP (CRD-binding protein) (N38 hypothalmic cells; 1 nM TCAP-1, 16 hours, relative to untreated control, cluster Growth/Differentiation, probe 102627): 0.59 fold
- Fold change CD95 (Fas antigen) (N38 hypothalmic cells; 1 nM TCAP-1, 16 hours, relative to untreated control, cluster Growth/Differentiation, probe 102921): 0.61 fold
- Fold change GBP3 (Guanylate binding protein) (N38 hypothalmic cells; 1 nM TCAP-1, 16 hours, relative to untreated control, cluster Growth/Differentiation, probe 103202): 0.63 fold
- Fold change CAI1 (Casein kinase II) (N38 hypothalmic cells; 1 nM TCAP-1, 16 hours, relative to untreated control, cluster Growth/Differentiation, probe 103441): 0.61 fold
- Fold change SSG1 (Steroid sensitive gene 1) (N38 hypothalmic cells; 1 nM TCAP-1, 16 hours, relative to untreated control, cluster Growth/Differentiation, probe 160298): 0.62 fold
- Fold change SDPR (Serum deprivation response protein) (N38 hypothalmic cells; 1 nM TCAP-1, 16 hours, relative to untreated control, cluster Growth/Differentiation, probe 160373): 0.57 fold
- Fold change ST7 (Suppressor of tumourigenicity) (N38 hypothalmic cells; 1 nM TCAP-1, 16 hours, relative to untreated control, cluster Growth/Differentiation, probe 160591): 1.97 fold
- Fold change PPAN (Peter Pan homologue) (N38 hypothalmic cells; 1 nM TCAP-1, 16 hours, relative to untreated control, cluster Growth/Differentiation, probe 160802): 0.62 fold
- Fold change P202 (202 interferon activatable protein) (N38 hypothalmic cells; 1 nM TCAP-1, 16 hours, relative to untreated control, cluster Growth/Differentiation, probe 161173): 0.61 fold
- Fold change MKI67 (Cell cycle protein regulator) (N38 hypothalmic cells; 1 nM TCAP-1, 16 hours, relative to untreated control, cluster Growth/Differentiation, probe 161931): 1.70 fold
- Fold change CLM2-B (Cytohesin-2) (N38 hypothalmic cells; 1 nM TCAP-1, 16 hours, relative to untreated control, cluster Processing, probe 93492): 0.63 fold
- Fold change ARF1 (ADP ribosylation factor 1) (N38 hypothalmic cells; 1 nM TCAP-1, 16 hours, relative to untreated control, cluster Processing, probe 95156): 0.63 fold
- Fold change YIPID (Rab-mediated membrane transport) (N38 hypothalmic cells; 1 nM TCAP-1, 16 hours, relative to untreated control, cluster Processing, probe 99675): 1.88 fold
- Fold change GP25L2 (gp25L brings cargo forward from ER) (N38 hypothalmic cells; 1 nM TCAP-1, 16 hours, relative to untreated control, cluster Processing, probe 100074): 1.53 fold
- Fold change AP4S1 (Adaptor related protein complex) (N38 hypothalmic cells; 1 nM TCAP-1, 16 hours, relative to untreated control, cluster Processing, probe 104561): 1.52 fold
- Fold change RAB10 (Ras oncogene homologue) (N38 hypothalmic cells; 1 nM TCAP-1, 16 hours, relative to untreated control, cluster Processing, probe 160149): 1.62 fold
- Fold change CAMIII (Calmodulin III) (N38 hypothalmic cells; 1 nM TCAP-1, 16 hours, relative to untreated control, cluster Signalling/Communication, probe 92631): 0.53 fold
- Fold change FNBX (Ferredoxin-NADP reductase) (N38 hypothalmic cells; 1 nM TCAP-1, 16 hours, relative to untreated control, cluster Signalling/Communication, probe 92754): 1.61 fold
- Fold change ALK3 (Bone morphogenic protein receptor) (N38 hypothalmic cells; 1 nM TCAP-1, 16 hours, relative to untreated control, cluster Signalling/Communication, probe 92767): 0.60 fold
- Fold change BMP4 (Bone morphogenic protein-4) (N38 hypothalmic cells; 1 nM TCAP-1, 16 hours, relative to untreated control, cluster Signalling/Communication, probe 93456): 0.52 fold
- Fold change IL1R (Interleukin 1 receptor) (N38 hypothalmic cells; 1 nM TCAP-1, 16 hours, relative to untreated control, cluster Signalling/Communication, probe 93914): 0.60 fold
- Fold change CLCN3 (Chloride channel protein 3) (N38 hypothalmic cells; 1 nM TCAP-1, 16 hours, relative to untreated control, cluster Signalling/Communication, probe 94465): 1.66 fold
- Fold change AKAP95 (A kinase anchor protein 95) (N38 hypothalmic cells; 1 nM TCAP-1, 16 hours, relative to untreated control, cluster Signalling/Communication, probe 95001): 0.60 fold
- Fold change GR (Glucocorticoid receptor) (N38 hypothalmic cells; 1 nM TCAP-1, 16 hours, relative to untreated control, cluster Signalling/Communication, probe 98818): 0.66 fold
- Fold change CREMβ1 (cAMP-responsive element modulator) (N38 hypothalmic cells; 1 nM TCAP-1, 16 hours, relative to untreated control, cluster Signalling/Communication, probe 100533): 1.61 fold
- Fold change PDE6A (cGMP Phosphodiesterase α) (N38 hypothalmic cells; 1 nM TCAP-1, 16 hours, relative to untreated control, cluster Signalling/Communication, probe 100696): 1.68 fold
- Fold change ERK1 (Mitogen activated protein kinase) (N38 hypothalmic cells; 1 nM TCAP-1, 16 hours, relative to untreated control, cluster Signalling/Communication, probe 101834): 0.64 fold
- Fold change BARK1 (β adrenorgic receptor kinase 1) (N38 hypothalmic cells; 1 nM TCAP-1, 16 hours, relative to untreated control, cluster Signalling/Communication, probe 104270): 0.61 fold
- Fold change INOS (Inducible nitric oxide synthetase) (N38 hypothalmic cells; 1 nM TCAP-1, 16 hours, relative to untreated control, cluster Signalling/Communication, probe 104420): 1.50 fold
- Fold change PCDHγ (protocadherin γ) (N38 hypothalmic cells; 1 nM TCAP-1, 16 hours, relative to untreated control, cluster Signalling/Communication, probe 160976): 0.42 fold
- Fold change TTF-1IP (TTF-1 interacting peptide) (N38 hypothalmic cells; 1 nM TCAP-1, 16 hours, relative to untreated control, cluster Signalling/Communication, probe 161019): 0.50 fold
- Fold change AKAP8 (A kinase anchor protein 8) (N38 hypothalmic cells; 1 nM TCAP-1, 16 hours, relative to untreated control, cluster Signalling/Communication, probe 161088): 1.58 fold
- Fold change SLC6A4 (Serotonin transporter) (N38 hypothalmic cells; 1 nM TCAP-1, 16 hours, relative to untreated control, cluster Signalling/Communication, probe 161695): 1.53 fold
- AKAP8 gene expression (N38 hypothalmic cells; [1]): upregulation
- AKAP95 gene expression (N38 hypothalmic cells; [1]): Downregulation
- CD95 gene expression (N38 hypothalmic cells; [1]): significant decrease
- EFK1 gene expression (N38 hypothalmic cells; [1]): down regulated
- GAS5 gene expression (N38 hypothalmic cells; [1]): significant decrease
- GDAP10 gene expression (N38 hypothalmic cells; [1]): upregulated
- MK167 gene expression (N38 hypothalmic cells; [1]): upregulated
- MOP3 gene expression (N38 hypothalmic cells; [1]): upregulated
- RGL gene expression (N38 hypothalmic cells; [1]): down regulated
- SDPR gene expression (N38 hypothalmic cells; [1]): significant decrease
- inducible nitric oxide (INOS) gene expression (N38 hypothalmic cells; [1]): upregulation
- intracellular voltage-gated chloride channel (CLCN3) gene expression (N38 hypothalmic cells; [1]): upregulation
- serotonin transporter (SLC6A4) gene expression (N38 hypothalmic cells; [1]): upregulation
- genes showing 1.5 fold down-regulation (N38 hypothalmic cells; [2]): 166
- genes showing up-regulation (N38 hypothalmic cells; [2]): 35

B1: leptin: leptin (recombinant mouse, Bachem Scientific) (protein, UniProt P41160 22-167, looked up)
Leptin: VPIQKVQDDTKTLIKTIVTRINDISHTQSVSAKQRVTGLDFIPGLHPILSLSKMDQTLAVYQQVLTSLPSQNVLQIANDLENLRDLLHLLAFSKSCSLPQTSGLQKPESLDGVLEASLYSTEVVALSRLQGSLQDILQQLDVSPEC
- proteins altered by leptin treatment (NPY-17 cells): approximately 250
